Results taken from ChEMBL document CHEMBL5465560, “Selectivity Literature for EUbOPEN Chemogenomic Library” (2024).

What was measured:
[1] = biological target: Casein kinase I isoform gamma-1 (Homo sapiens) (UniProt Q9HCP0); details: at 10 µM
[2] = biological target: Ribosomal protein S6 kinase alpha-4 (Homo sapiens) (UniProt O75676); experiment: Selectivity interaction (KinaseProfiler screening (Millipore)) EUB0000601a RPS6KA4; details: at 3 µM
[3] = biological target: T1, Dual specificity mitogen-activated protein kinase kinase 6 (Homo sapiens) (UniProt P52564); experiment: Selectivity interaction (Kinase screening (Upstate/Millipore)) EUB0000604a MAP2K6
T1 sequence (whole entry): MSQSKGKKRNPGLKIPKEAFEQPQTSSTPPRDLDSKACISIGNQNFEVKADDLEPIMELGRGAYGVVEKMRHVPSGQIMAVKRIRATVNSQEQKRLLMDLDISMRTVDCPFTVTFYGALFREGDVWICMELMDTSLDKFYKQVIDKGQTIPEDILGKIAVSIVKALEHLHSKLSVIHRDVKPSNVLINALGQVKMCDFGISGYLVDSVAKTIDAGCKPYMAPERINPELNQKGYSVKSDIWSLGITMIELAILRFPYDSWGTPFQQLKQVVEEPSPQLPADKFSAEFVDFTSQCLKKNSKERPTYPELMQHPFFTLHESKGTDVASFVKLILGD

[4] = biological target: Serine/threonine-protein kinase WNK2 (Homo sapiens) (UniProt Q9Y3S1); experiment: Selectivity interaction (ActivX KiNativ screen (kinase selectivity in THP-1 cell lysates)) EUB0000639a WNK2; format: subcellular; details: lysate, at 0.04 µM
[5] = biological target: T2, Mitogen-activated protein kinase kinase kinase 2 (Homo sapiens) (UniProt Q9Y2U5); experiment: Selectivity interaction (ActivX KiNativ screen (kinase selectivity in THP-1 cell lysates)) EUB0000639a MAP3K2; format: subcellular; details: lysate, at 0.01 µM
T2 sequence (whole entry): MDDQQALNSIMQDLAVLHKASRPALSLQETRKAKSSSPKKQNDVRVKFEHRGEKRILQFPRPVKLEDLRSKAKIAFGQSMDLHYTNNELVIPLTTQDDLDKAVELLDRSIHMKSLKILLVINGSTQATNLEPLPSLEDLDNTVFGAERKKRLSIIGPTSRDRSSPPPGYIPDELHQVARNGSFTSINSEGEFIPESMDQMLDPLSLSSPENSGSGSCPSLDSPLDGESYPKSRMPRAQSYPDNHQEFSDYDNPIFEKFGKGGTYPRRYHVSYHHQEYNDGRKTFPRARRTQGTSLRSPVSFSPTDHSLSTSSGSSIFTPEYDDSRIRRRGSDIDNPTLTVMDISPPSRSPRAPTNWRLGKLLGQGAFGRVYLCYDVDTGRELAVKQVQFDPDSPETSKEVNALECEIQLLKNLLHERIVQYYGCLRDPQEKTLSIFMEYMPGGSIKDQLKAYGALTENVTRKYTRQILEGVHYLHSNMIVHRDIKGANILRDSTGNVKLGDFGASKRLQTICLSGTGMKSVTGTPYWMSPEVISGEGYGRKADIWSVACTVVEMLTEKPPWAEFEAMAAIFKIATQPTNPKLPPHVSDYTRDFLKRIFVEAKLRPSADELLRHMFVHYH

[6] = biological target: Wee1-like protein kinase (Homo sapiens) (UniProt P30291); experiment: Selectivity interaction (KinomeScan (DiscoverX)) EUB0000595a WEE1; details: at 10 µM
Wee1-like protein kinase (Homo sapiens), sequence (P30291 whole entry, looked up): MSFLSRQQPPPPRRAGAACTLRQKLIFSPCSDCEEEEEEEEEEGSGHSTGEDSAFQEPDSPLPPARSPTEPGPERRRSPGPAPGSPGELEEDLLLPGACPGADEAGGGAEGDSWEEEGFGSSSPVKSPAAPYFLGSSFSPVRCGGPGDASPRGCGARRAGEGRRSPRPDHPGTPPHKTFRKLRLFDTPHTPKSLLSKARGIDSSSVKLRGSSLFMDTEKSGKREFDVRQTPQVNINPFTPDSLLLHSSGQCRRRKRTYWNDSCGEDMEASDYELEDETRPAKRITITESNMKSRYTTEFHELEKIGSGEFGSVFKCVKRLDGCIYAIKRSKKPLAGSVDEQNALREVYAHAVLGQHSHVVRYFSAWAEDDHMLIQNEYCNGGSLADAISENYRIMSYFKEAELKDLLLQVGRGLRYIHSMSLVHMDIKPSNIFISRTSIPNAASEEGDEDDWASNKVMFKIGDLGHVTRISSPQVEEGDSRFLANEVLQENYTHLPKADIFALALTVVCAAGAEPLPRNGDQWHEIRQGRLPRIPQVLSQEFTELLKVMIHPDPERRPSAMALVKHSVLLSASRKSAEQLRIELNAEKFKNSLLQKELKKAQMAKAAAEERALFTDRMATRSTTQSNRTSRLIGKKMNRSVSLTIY

[7] = biological target: Mitogen-activated protein kinase 8 (Homo sapiens, UniProt P45983); experiment: Selectivity interaction (KinomeScan (DiscoverX)) EUB0000229b MAPK8; details: at 10 µM
Mitogen-activated protein kinase 8, sequence (P45983 whole entry): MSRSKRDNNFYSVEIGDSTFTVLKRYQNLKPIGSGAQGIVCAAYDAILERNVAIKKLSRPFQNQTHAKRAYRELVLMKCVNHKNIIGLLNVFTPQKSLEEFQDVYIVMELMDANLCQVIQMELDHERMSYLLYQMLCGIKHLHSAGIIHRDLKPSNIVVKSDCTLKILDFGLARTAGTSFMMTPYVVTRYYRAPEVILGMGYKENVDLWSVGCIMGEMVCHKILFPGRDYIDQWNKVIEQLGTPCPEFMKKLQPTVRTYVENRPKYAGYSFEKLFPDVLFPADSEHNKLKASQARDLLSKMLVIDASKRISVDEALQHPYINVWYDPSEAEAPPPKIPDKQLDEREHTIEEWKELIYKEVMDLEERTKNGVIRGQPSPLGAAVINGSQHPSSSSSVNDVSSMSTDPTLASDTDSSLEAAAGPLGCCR

[8] = biological target: Ribosomal protein S6 kinase alpha-5 (Homo sapiens) (UniProt O75582); experiment: Selectivity interaction (ProQinase) EUB0000171b RPS6KA5
Ribosomal protein S6 kinase alpha-5 (Homo sapiens), sequence (O75582 whole entry, looked up): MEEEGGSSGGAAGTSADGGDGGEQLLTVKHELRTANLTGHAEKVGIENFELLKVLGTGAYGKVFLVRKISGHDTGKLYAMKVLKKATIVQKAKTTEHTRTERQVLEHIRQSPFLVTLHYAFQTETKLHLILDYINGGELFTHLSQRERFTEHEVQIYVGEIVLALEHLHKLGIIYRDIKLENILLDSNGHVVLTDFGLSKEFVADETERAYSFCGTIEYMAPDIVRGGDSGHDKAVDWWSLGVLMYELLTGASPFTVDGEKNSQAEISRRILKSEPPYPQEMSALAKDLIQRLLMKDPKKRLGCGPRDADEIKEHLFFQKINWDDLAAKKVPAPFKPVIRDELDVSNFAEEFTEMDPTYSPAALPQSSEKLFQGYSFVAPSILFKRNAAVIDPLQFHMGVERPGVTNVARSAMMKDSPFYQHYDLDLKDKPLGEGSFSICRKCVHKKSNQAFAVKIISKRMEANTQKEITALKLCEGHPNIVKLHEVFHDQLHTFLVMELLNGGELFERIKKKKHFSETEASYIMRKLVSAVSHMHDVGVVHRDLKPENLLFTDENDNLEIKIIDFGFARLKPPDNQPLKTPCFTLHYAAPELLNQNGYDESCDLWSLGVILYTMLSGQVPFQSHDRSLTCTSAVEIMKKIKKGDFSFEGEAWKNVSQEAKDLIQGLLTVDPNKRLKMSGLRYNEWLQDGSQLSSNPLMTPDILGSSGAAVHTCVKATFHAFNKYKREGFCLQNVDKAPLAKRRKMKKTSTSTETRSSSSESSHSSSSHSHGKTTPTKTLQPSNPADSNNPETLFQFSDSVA

[9] = biological target: Tyrosine-protein kinase receptor Tie-1 (Homo sapiens) (UniProt P35590); experiment: Selectivity interaction (KinomeScan (DiscoverX)) EUB0000092b TIE1; details: at 10 µM
Tyrosine-protein kinase receptor Tie-1 (Homo sapiens), sequence (P35590 whole entry): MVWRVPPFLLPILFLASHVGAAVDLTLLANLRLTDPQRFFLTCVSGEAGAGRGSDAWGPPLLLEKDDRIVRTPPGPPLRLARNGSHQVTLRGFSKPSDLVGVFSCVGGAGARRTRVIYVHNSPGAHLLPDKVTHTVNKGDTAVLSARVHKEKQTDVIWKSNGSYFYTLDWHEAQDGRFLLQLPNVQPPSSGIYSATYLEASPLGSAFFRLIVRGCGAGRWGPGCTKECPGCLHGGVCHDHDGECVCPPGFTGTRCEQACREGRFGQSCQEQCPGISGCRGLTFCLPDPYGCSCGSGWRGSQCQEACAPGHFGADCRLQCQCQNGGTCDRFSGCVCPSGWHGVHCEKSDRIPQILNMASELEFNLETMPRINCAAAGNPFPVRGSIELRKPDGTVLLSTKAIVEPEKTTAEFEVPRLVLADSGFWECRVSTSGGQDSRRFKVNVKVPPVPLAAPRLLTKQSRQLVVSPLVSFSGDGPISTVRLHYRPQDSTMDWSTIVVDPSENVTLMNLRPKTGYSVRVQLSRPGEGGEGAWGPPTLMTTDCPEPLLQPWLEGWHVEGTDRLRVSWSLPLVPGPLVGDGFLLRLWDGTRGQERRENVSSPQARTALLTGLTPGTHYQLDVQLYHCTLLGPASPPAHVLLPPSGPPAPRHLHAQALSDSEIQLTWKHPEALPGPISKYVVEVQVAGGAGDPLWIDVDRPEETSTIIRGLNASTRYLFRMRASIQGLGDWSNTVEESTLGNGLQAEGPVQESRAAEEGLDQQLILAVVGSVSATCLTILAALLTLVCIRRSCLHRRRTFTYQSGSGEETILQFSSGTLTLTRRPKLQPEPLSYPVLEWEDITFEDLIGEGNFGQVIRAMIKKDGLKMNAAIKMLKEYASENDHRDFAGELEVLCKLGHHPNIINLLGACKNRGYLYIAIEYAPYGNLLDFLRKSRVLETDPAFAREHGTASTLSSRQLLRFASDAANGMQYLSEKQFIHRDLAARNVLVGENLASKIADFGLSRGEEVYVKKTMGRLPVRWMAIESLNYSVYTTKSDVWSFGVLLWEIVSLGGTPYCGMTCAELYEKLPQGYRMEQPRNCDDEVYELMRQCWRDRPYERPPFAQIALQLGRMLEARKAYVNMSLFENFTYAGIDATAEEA

[10] = biological target: T3, Inhibitor of nuclear factor kappa-B kinase subunit alpha (Homo sapiens) (UniProt O15111); experiment: Selectivity interaction (KinomeScan (DiscoverX)) EUB0001619a CHUK; details: at 1 µM
T3 sequence (whole entry): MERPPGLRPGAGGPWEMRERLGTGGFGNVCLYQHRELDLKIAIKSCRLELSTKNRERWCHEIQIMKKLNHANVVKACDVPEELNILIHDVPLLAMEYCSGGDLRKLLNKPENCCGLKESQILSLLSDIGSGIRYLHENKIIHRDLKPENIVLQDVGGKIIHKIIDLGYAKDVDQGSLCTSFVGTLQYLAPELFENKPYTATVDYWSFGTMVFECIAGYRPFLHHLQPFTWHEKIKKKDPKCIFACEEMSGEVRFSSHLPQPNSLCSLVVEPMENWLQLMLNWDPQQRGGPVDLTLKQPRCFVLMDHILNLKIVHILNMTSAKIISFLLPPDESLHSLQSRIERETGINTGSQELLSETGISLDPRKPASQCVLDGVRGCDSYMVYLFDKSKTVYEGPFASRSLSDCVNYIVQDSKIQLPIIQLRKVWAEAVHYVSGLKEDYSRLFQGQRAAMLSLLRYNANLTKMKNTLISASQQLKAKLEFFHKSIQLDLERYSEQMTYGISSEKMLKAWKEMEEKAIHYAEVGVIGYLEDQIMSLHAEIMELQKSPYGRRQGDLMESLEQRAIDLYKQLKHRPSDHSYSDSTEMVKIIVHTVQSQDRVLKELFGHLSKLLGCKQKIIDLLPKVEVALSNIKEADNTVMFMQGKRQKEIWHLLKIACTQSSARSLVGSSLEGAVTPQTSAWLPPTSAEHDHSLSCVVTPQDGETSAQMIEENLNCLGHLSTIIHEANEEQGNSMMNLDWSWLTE

[11] = biological target: Activin receptor type-2A (Homo sapiens) (UniProt P27037); experiment: Selectivity interaction (KinomeScan (DiscoverX)) EUB0000618a ACVR2A; details: at 10 µM
Activin receptor type-2A (Homo sapiens), sequence (P27037 whole entry): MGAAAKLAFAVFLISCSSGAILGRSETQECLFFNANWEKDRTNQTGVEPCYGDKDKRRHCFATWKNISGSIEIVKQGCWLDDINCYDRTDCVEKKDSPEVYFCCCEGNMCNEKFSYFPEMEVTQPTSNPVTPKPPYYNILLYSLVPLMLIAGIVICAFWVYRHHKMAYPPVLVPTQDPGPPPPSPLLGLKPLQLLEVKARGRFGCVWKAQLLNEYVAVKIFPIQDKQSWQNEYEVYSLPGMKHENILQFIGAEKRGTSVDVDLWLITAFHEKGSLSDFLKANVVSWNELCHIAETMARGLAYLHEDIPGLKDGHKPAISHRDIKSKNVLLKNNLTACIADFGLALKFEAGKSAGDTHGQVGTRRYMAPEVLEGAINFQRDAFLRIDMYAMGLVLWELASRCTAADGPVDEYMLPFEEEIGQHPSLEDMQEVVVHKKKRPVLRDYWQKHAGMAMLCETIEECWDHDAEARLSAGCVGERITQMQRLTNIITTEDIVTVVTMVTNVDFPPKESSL

Casein kinase I isoform gamma-1 (Homo sapiens), sequence (Q9HCP0 whole entry, looked up, canonical isoform): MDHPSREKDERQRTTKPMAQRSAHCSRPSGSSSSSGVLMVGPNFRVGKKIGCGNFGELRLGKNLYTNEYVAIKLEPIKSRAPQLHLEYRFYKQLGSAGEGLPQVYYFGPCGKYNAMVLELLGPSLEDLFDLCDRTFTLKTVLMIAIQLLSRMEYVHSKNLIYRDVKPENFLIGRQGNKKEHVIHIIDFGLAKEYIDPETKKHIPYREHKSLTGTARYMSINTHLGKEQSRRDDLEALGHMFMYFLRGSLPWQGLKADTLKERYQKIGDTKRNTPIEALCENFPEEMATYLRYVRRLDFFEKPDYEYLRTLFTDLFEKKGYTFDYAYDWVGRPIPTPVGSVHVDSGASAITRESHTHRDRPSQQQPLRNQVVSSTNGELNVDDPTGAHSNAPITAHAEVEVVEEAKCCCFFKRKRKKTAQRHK
Ribosomal protein S6 kinase alpha-4 (Homo sapiens), sequence (O75676 whole entry, looked up): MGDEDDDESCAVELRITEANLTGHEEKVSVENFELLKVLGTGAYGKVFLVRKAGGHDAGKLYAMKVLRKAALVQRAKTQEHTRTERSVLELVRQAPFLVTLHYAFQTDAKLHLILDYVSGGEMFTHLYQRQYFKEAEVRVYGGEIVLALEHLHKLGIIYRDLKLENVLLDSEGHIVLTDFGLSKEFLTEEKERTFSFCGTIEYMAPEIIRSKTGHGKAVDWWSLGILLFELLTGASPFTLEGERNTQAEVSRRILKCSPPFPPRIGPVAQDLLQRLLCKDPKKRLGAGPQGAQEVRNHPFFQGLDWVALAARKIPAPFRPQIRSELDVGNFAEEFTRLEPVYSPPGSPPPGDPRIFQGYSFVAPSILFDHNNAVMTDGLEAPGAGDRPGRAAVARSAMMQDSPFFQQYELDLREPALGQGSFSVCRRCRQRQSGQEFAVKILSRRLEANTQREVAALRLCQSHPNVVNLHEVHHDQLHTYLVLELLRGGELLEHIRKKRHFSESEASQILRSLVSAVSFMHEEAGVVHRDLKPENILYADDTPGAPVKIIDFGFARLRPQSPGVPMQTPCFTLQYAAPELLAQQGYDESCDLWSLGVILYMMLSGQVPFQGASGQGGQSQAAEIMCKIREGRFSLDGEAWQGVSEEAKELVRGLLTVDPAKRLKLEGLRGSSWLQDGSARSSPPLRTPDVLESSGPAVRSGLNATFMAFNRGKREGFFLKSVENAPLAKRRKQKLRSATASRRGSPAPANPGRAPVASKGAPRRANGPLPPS

How did the % of control [1] turn out when `Cc1cc([C@@H](C)Nc2ccccc2C(=O)O)c2nc(N3CCOCC3)cc(=O)n2c1` [AZD-6482] was run?
The % of control was 68%.

For `CCc1cc(Nc2nccc(-c3c(-c4ccc(OC)c(C(=O)Nc5c(F)cccc5F)c4)nc4ccccn34)n2)c(OC)cc1N1CCC(N2CCN(S(C)(=O)=O)CC2)CC1`, which % of inhibition [2] is on record?
The % of inhibition was 55%.

How did the % of inhibition [3] turn out when `Cc1cnc(Nc2ccc(F)cc2Cl)nc1-c1c[nH]c(C(=O)N[C@H](CO)c2cccc(Cl)c2)c1` was run?
The % of inhibition was 9%.

With `CC[C@@H]1[C@H](F)C(=O)N[C@@H]1COc1nccc2cc(C(N)=O)c(OC)cc12` [ZIMLOVISERTIB] as the compound, how does the % of inhibition [4] read?
Its % of inhibition is -7.4%.

What about the % of inhibition [5] of the same compound?
Its % of inhibition is 8.7%.

Which % of control [6] does the source give for `COCC(=O)NC/C=C/c1ccc2ncnc(Nc3ccc(Oc4ccc(C)nc4)c(C)c3)c2c1` [CP-724714] here?
Its % of control is 100%.

For `COc1cc(N(C)c2ccnc3ccc(C(F)(F)F)cc23)cc(OC)c1OC`, which % binding [7] is on record?
Its % binding is 72%.

What does the source list for `C=CC(=O)Nc1cccc(C(=O)Nc2ccc(Nc3cc(-c4[nH]c(SC)nc4C)ccn3)cc2)c1`?
% of control ([8]; at 1 µM): 94%; % of control ([8]; at 5 µM): 87%

For `CCC(=O)N1CCN(c2ccc(-n3c(=O)ccc4cnc5ccc(-c6cnc7ccccc7c6)cc5c43)cc2C(F)(F)F)CC1`, which % of control [9] is on record?
The % of control was 100%.

For `N#Cc1cccc(-c2c[nH]c3ncnc(N4CCOCC4)c23)c1`, which % of control [10] is on record?
The % of control was 71%.

For `O[C@H]1CC[C@H](Nc2ncc3nc(Nc4c(F)cc(F)cc4F)n([C@H]4CCOC4)c3n2)CC1`, which % of control [11] is on record?
Its % of control is 92%.
